Test [1] concerns the target T1, Trace amine-associated receptor 1 (Homo sapiens, UniProt Q96RJ0). Kind of test: Fluorescence-based cell-based high throughput dose response assay to identify agonists of the human trace amine associated receptor 1 (TAAR1). The class given is functional.
The nature of test [2]: cells. The class given is functional, cell-based.
The target in test [3] is T1, Trace amine-associated receptor 1. The test is described as follows: Counterscreen for agonists of the human trace amine associated receptor 1 (hTAAR1): Fluorescence-based cell-based high throughput dose response assay to identify hTAAR1 agonist that also desensitize TAAR1 receptor response. The class given is functional. In general terms: A counterscreen serves to expose hits that act by an unwanted route or on another target.

Test [4] is described as follows: cells. The class given is functional, cell-based. This is another data set of the same source.
Test [5] is described as follows: Late stage assay provider results from the probe development effort to identify selective inhibitors of heat shock protein 90 (HSP90): Absorbance-based cell proliferation assay in SKBR3 cells. It counts as functional. As to conditions: SK-BR-3.
The nature of test [6]: Late stage assay provider results from the probe development effort to identify selective inhibitors of heat shock protein 90 (HSP90): Absorbance-based cell proliferation assay in MCF7 cells. The class given is functional.
A short description of test [7]: miR-122 activators in hepatoma reporter cells, dose response, cell-based, Huh7 psiCHECK-miR122, Renilla luciferase, cherry-picked (AID 651956).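 Also: huh7 hepatoma cells stably carrying a psiCHECK-2 miR-122 sensor plasmid; renilla luciferase signal reporting endogenous miR-122 activity after 48 h compound exposure.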 It counts as functional.
The nature of test [8]: HEK293T cytotoxicity, dose response, cytotoxicity control for miR-122 modulator project, cell-based, activator set, cherry-pick (AID 720690).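 Also: HEK293T human cells scored for general mammalian cytotoxicity.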 The class given is functional.
Test [9] is described as follows: cells.
The target of test [10] is Major prion protein (Homo sapiens, UniProt P04156). The class given is functional, cell-based.
In test [11] the target is Potassium channel subfamily K member 3 (Homo sapiens, UniProt O14649). The test is described as follows: TASK1 (KCNK3) potassium channel inhibitors, SAR follow-up, CHO cells, FluxOR thallium flux (AID 652212). It counts as functional.
Test [12] addresses Potassium channel subfamily K member 9 (Homo sapiens, UniProt Q9NPC2). Kind of test: TASK3 (KCNK9) channel inhibitors, thallium flux, SAR follow-up, selectivity assay for TASK1 inhibitor project, cell-based, FluxOR thallium flux, concentration-response (AID 652211).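 Also: potency is for inhibitors of the channel.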 The class given is functional.
Test [13] addresses Potassium voltage-gated channel subfamily KQT member 2 (Rattus norvegicus, UniProt O88943). The test is described as follows: KCNQ2 channel inhibition, SAR follow-up, selectivity assay for TASK1 inhibitor project, cell-based, FluxOR thallium flux, concentration-response (AID 652192). It counts as functional.
For test [14], the target named is COUP transcription factor 2 (Homo sapiens, UniProt P24468). The test is described as follows: Luminescence-based cell-based high throughput dose response assay to identify inhibitors of COUP-TFII (NR2F2). It counts as functional.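 Also: HEK293 cells transiently cotransfected with COUP-TFII expression vector and reporter; luciferase reporter luminescence driven by COUP-TFII from the pX2-168 reporter plasmid.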
Test [15] has as its target T2, Estrogen receptor (Homo sapiens, UniProt P03372).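 Also: potency for inhibiting coactivator peptide recruitment to the receptor.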
T2 sequence (P03372 whole entry): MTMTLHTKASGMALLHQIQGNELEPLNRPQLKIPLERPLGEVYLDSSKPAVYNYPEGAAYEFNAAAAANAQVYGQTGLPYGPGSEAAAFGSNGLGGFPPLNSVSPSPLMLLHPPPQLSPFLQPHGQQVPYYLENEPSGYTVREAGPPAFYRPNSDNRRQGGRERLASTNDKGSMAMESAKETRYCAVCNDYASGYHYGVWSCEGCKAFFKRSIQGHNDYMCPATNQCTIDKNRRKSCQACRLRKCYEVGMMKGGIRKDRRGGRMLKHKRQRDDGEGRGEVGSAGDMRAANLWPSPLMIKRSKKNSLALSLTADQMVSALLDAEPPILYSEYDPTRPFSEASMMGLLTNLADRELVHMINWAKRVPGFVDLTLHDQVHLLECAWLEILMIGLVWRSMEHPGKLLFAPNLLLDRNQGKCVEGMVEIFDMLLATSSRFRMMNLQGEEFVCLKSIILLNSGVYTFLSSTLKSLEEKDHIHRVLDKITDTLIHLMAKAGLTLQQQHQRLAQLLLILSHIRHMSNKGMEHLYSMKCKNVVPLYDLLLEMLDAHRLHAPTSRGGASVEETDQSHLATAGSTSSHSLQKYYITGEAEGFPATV

Test [16] concerns the target T3, Beta-lactamase (Pseudomonas aeruginosa, UniProt Q79MP6). The test is described as follows: IMP-1 metallo-beta-lactamase inhibitors, dose response, selectivity assay for VIM-2 inhibitor project, biochemical, epi-absorbance (AID 1920).
Test [17] addresses Beta-lactamase (Salmonella choleraesuis (strain SC-B67), UniProt Q5J463). Kind of test: Epi-absorbance-based counterscreen for selective VIM-2 inhibitors: dose response biochemical high throughput screening assay to identify inhibitors of TEM-1 serine-beta-lactamase.
The target in test [18] is T4, High affinity choline transporter 1 (Homo sapiens, UniProt Q9GZV3).
T4 sequence (Q9GZV3 whole entry): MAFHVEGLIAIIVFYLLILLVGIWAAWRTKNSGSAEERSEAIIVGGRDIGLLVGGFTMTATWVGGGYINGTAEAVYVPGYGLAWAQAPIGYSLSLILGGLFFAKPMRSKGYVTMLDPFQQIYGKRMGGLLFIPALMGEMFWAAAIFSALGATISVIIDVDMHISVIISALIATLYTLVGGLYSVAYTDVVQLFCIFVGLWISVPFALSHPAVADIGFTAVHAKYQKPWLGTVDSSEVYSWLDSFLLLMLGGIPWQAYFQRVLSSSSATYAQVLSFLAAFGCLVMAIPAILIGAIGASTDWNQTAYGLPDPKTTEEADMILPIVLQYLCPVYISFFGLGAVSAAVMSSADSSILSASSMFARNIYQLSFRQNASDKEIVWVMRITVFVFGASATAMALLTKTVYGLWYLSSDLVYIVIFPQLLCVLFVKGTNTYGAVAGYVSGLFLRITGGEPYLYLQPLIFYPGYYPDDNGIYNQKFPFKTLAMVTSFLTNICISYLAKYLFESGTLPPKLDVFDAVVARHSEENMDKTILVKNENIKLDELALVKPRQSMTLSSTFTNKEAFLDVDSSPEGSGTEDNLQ
Kind of test: CHT inhibitors, dose response, cell-based, 5-point CRC, membrane potential dye (AID 504840). It counts as functional.

Test [19] addresses T3, Beta-lactamase. The test is described as follows: […] counterscreen for selective VIM-2 inhibitors: dose response biochemical high throughput screening assay to identify inhibitors of IMP-1 metallo-beta-lactamase.
The target of test [20] is T4, High affinity choline transporter 1. The test is described as follows: CHT inhibitors, dose response, cell-based, 10-point CRC, membrane potential dye (AID 588401).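 Also: membrane potential dye fluorescence of choline-evoked depolarization via CHT.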 The class given is functional.
Test [21] can be described thus: cells. As to conditions: HEK-CNG. It counts as functional, cell-based.
Test [22] concerns the target Galanin receptor type 3 (Homo sapiens, UniProt O60755). Kind of test: Fluorescence-based cell-based primary high throughput dose response assay to identify antagonists of the Galanin Receptor 3 (GalR3). It counts as functional.
The nature of test [23]: reduction of Shn3 3'UTR firefly luciferase signal, dose response, Schnurri-3 inhibitor project, cell-based, Clone20 osteoblasts, cherry-pick, set 2 (AID 720490).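 Also: actives lower the luminescence signal as inhibitors.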 It counts as functional.
The nature of test [24]: Shn3 3'UTR reporter inhibitors, dose response, cell-based, Clone20 osteoblasts, firefly luciferase, cherry-picked (AID 624132).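 Also: firefly luciferase luminescence from reporter carrying the Shn3 3'UTR in osteoblasts.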 It counts as functional.
Test [25] in a line: A Cell-Based Confirmatory Screen for Compounds that Inhibit VEEV, TC-83 (7). It counts as functional.
Test [26] has as its target Endoplasmic reticulum aminopeptidase 1 (Homo sapiens, UniProt Q9NZ08). Kind of test: ERAP1 aminopeptidase inhibitors, dose response, biochemical, cherry-pick, set 2, plate reader (AID 743314).
Test [27] can be described thus: HEp-2 cell cytotoxicity, dose response, cytotoxicity control for RSV inhibitor project, HTS (AID 2410). The class given is functional. As to conditions: human respiratory syncytial virus.
Test [28] can be described thus: cytotoxicity in OV-90 ovarian cancer cells, dose response, PAX8 inhibitor project, cell-based, plate reader, dry powder, SA8 (AID 743149). The class given is functional.
A short description of test [29]: cytotoxicity in OVCAR4 cells, dose response, cytotoxicity control for PAX8 inhibitor project, cell-based, plate reader, dry powder, SA11 (AID 743150). As to conditions: OVCAR-4. It counts as functional.
Test [30] can be described thus: PAX5 activity inhibitors, dose response, selectivity assay for PAX8 inhibitor project, cell-based, plate reader, dry powder samples (AID 743047).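 Also: HEK293 cells carrying a Pax5 driven CD19 promoter luciferase reporter; potency of inhibitors that lower reporter luminescence.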 The class given is functional.
Test [31] in a line: cytotoxicity in COV434 cells, dose response, cytotoxicity control for PAX8 inhibitor project, cell-based, plate reader, dry powder, SA7 (AID 743145). The class given is functional.
The nature of test [32]: A2780 ovarian cancer cell cytotoxicity, dose response, cytotoxicity control, plate reader, dry powder samples (AID 743046). It counts as functional, cell-based.
Test [33] can be described thus: IOSE-T80 ovarian epithelial cell cytotoxicity, dose response, cytotoxicity control for PAX8 inhibitor project, plate reader, dry powder samples (AID 743045). It counts as functional, cell-based.
A short description of test [34]: NIH:OVCAR-3 ovarian cancer cell cytotoxicity, dose response, PAX8 inhibitor project, plate reader, dry powder samples (AID 743044). It counts as functional, cell-based.
For test [35], the target named is Paired box protein Pax-8 (Homo sapiens, UniProt Q06710). Kind of test: inhibitors of PAX8-driven TPO luciferase reporter, dose response, RMG-I cells, cherry-pick (AID 687027).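 Also: luciferase reporter driven by Pax8 target thyroperoxidase promoter measured by SteadyGlo luminescence.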 The class given is functional, cell-based. (In general: Reporter assays use an easily measured gene product as a stand-in for the process of interest.)
Test [36] can be described thus: cytotoxicity dependent on PAX8, dose response, cell-based, plate reader, dry powder (AID 743049). The class given is functional.
Test [37] is described as follows: PAX2 cell-based inhibition, dose response, selectivity assay for PAX8 inhibitor project, plate reader, dry powder samples (AID 743048).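 Also: HEK293 cells carrying a WT1 promoter luciferase reporter driven by expressed Pax2; potency is for inhibition of Pax2 driven reporter signal.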 It counts as functional.
Test [38] can be described thus: cytotoxicity in COV362 ovarian cancer cells, dose response, cytotoxicity control for PAX8 inhibitor project, cell-based, plate reader, dry powder, SA12 (AID 743144). It counts as functional.
The nature of test [39]: IGROV1 ovarian cancer cell cytotoxicity, dose response, PAX8 inhibitor project, plate reader, dry powder samples (AID 743043). The class given is functional, cell-based. As to conditions: IGROV-1.

This note sets out measurements from ChEMBL document CHEMBL1201862, “PubChem BioAssay data set” (2004).

Active and inactive are the calls of the source.

A word on the EC50: it is the concentration giving half of the maximal effect. As usually defined, the IC50 is the concentration that inhibits the measured activity by half. As usually defined, the AC50 is the concentration giving half of the maximal activity seen. As a reminder, the CC50 is the concentration that lowers cell viability or growth by half.

Regarding `CC(C)[C@H](NC(=O)C1CCCC1)C(=O)N1CCC[C@H]1C(=O)NCCc1ccccc1Cl`, the EC50 was 0.897 µM (active) in [1] and > 29.9 µM (inactive) in test [4]. For the same compound, the results for the IC50 in test [2] and in test [3] were > 29.9 µM (inactive) and 3.8 µM (active), respectively.

Consider `Cc1c(N/C=C2/C=C(Br)C(=O)OC2=O)c(=O)n(-c2ccccc2)n1C`, for which the IC50 was 16 µM (inactive) in [5] and 3 µM (active) in test [6].

Regarding `C[C@@H]1CCCCO[C@H](CN(C)CC2CCCCC2)[C@H](C)CN([C@@H](C)CO)C(=O)c2cc(NC(=O)Nc3ccc(C(F)(F)F)cc3)ccc2O1`, the AC50 in test [7] is 2.85 µM (active); in test [8], 4.83 µM (active).

On to `COc1ccc(/C=C\C(=O)NCc2ccc3c(c2)cc(C)n3C)cc1OC`, for which the values for the IC50 in test [9] and in test [10] were > 138 µM (inactive) and 40.3 µM (inactive), respectively.

For the compound `COc1cnccc1C(=O)Nc1cccc(NC(=O)c2cccc(C)c2)c1`, the IC50 was 0.18 µM (active) in test [11], 2.43 µM (active) in [12] and 7.58 µM (active) in test [13].

With `CCN(CC)S(=O)(=O)c1ccc(/C=C/C(=O)Nc2ccc(Br)cc2F)cc1`, in test [14], the IC50 is 5.05 µM (active).

As to `Cn1ccnc1SCC(=O)Nc1ccc2nc(SCC(=O)NC3CC3)sc2c1`, the concentration for half-maximal inhibition (IC50) in test [15] was 25.7 µM (active); in test [16], > 59.6 µM (inactive); in test [17], > 59.6 µM (inactive); in [18] it was 4.29 µM (active); in test [19] it was > 59.6 µM (inactive); in test [20], 0.843 µM (active).

On to `Cc1cc(Br)cn2c(Cc3ccccc3C(F)(F)F)c(-c3ccco3)nc12`, for which the EC50 in test [21] was > 29.9 µM (inactive). For the same compound, the IC50 in [22] was 14.5 µM (inactive).

`COc1ccc(CNC(=O)C(c2ccc(C)cc2)N(Cc2cccs2)C(=O)c2ccc3c(c2)OCCO3)cc1` (centres undefined): the AC50 is 13.8 µM (active) in [23] and 8.1 µM (active) in test [24].

Consider `CN1CCN(C)/C(=N/c2ccc([N+](=O)[O-])cc2C(=O)Nc2ccccc2F)C1`, for which the IC50 in [25] is 0.15 µM (active).

For `COc1ccc(-c2cc3ccc(O)cc3oc2=O)cc1`, the AC50 in test [26] was 3.06 µM (active). Besides, the 50% cytotoxic concentration (CC50) in test [27] was 49.4 µM (active).

`COc1ccc(/C=C/C(=O)c2cc(F)ccc2OC(=O)c2ccccc2C)cc1OC`: the AC50 in [28] is 4.08 µM (active); in test [29], 1.71 µM (active); in [30], 31.1 µM (active); in [31], 1.79 µM (active); in [32] it was 3.22 µM (active); in test [33] it was 4.08 µM (active). The AC50 in test [34] is 13.2 µM (active); in [35], 1.74 µM (active); in test [36] it was 5.56 µM (active); in [37] it was > 100 µM (inactive); in [38], 2.52 µM (active); in test [39], 3.26 µM (active).
